The source of these data is US20110263662A1, “1,2-DIAMIDO-ETHYLENE DERIVATIVES AS OREXIN ANTAGONISTS” (priority 2007, published 2011).

For one assay, the target named is T1, human orexin-1 receptor (Homo sapiens, UniProt O43613).
T1 construct: expressed in transfected cells; host or cells: CHO (Chinese hamster ovary) cells, grown under G418 selection
T1 sequence (O43613 1-425): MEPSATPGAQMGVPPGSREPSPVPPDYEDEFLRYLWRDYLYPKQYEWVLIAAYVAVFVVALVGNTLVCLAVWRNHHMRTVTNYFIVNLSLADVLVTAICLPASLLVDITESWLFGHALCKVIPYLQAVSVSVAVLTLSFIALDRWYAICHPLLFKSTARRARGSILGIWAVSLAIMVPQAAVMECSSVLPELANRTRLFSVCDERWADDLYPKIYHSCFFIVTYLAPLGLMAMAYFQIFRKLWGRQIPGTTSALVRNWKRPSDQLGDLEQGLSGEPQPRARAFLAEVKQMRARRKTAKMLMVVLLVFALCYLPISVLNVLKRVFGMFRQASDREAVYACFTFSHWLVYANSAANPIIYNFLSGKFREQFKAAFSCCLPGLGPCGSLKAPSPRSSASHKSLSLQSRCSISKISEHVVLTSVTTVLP
Put plainly: FLIPR intracellular calcium assay, orexin receptor antagonistic activity (OX1). Type of assay: cell-based. The settings on record: CHO cells expressing human orexin-1 receptor, 3 nM orexin-A. As for the experimental part:
(§1) Chinese hamster ovary (CHO) cells expressing the human orexin-1 receptor and the human orexin-2 receptor, respectively, are grown in culture medium (Ham F-12 with L-Glutamine) containing 300 μg/ml G418, 100 U/ml penicillin, 100 μg/ml streptomycin and 10% heat inactivated fetal calf serum (FCS). The cells are seeded at 20′000 cells/well into 384-well black clear bottom sterile plates (Greiner). The seeded plates are incubated overnight at 37° C. in 5% CO2.
(§2) Human orexin-A as an agonist is prepared as 1 mM stock solution in MeOH:water (1:1), diluted in HBSS containing 0.1% bovine serum albumin (BSA), NaHCO3:0.375 g/l and 20 mM HEPES for use in the assay at a final concentration of 3 nM.
(§3) Antagonists are prepared as 10 mM stock solution in DMSO, then diluted in 384-well plates, first in DMSO, then in HBSS containing 0.1% bovine serum albumin (BSA), NaHCO3: 0.375 g/l and 20 mM HEPES.
(§4) On the day of the assay, 50 μl of staining buffer (HBSS containing 1% FCS, 20 mM HEPES, NaHCO3: 0.375 g/l, 5 mM probenecid (Sigma) and 3 μM of the fluorescent calcium indicator fluo-4 AM (1 mM stock solution in DMSO, containing 10% pluronic) is added to each well.
(§5) The 384-well cell-plates are incubated for 50 min at 37° C. in 5% CO2 followed by equilibration at RT for 30-120 min before measurement.
(§6) Within the Fluorescent Imaging Plate Reader (FLIPR2 or FLIPR Tetra, Molecular Devices), antagonists are added to the plate in a volume of 10 μl/well, incubated for 10 min and finally 10 μl/well of agonist is added. Fluorescence is measured for each well at 1 second intervals, and the height of each fluorescence peak is compared to the height of the fluorescence peak induced by 3 nM orexin-A with vehicle in place of antagonist. For each antagonist, the IC50 value (the concentration of compound needed to inhibit 50% of the agonistic response) is determined. Optimized conditions may be achieved by adjustment of pipetting speed and cell splitting regime. The calculated IC50 values of the compounds may fluctuate depending on the daily cellular assay performance. Fluctuations of this kind are known to those skilled in the art.

Another assay deals with T2, human orexin-2 receptor (Homo sapiens, UniProt O43614).
T2 construct: expressed in transfected cells; host or cells: CHO (Chinese hamster ovary) cells, grown under G418 selection
T2 sequence (O43614 1-444): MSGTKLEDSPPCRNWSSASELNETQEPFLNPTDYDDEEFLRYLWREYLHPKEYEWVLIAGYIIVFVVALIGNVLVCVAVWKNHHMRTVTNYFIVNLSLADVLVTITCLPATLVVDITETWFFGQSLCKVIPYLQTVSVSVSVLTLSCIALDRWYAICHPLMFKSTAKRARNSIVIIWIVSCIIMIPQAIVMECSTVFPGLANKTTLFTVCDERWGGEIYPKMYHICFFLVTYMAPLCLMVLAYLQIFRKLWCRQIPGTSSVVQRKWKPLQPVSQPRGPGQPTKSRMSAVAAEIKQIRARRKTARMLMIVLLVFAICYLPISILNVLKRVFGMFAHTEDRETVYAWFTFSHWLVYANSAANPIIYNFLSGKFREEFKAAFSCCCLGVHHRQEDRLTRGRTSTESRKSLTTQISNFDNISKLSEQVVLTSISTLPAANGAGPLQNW
Put plainly: FLIPR intracellular calcium assay, orexin receptor antagonistic activity (OX2). Type of assay: cell-based. The settings on record: CHO cells expressing human orexin-2 receptor, 3 nM orexin-A. As for the experimental part:
as §1, §2, §3, §4, §5, §6

Setting [1] is: measured with FLIPR Tetra (marked *).
Setting [2] is: FLIPR 2, geometric mean from n = 2 values.

With `Cc1nc(C(=O)NC(CNC(=O)c2c(C)nc3sccn23)C2CC2)c(-c2ccccc2)s1` (racemic) [Example 49, 6-Methyl-imidazo[2,1-b]thiazole-5-carboxylic acid {(RS)-2-cyclopropyl-2-[(2-methyl-5-phenyl-thiazole-4-carbonyl)-amino]-ethyl}-amide], the IC50 at human orexin-1 receptor (measured with FLIPR 2) was 37 nM; at human orexin-2 receptor (measured with FLIPR 2) it was 33 nM.

As for `Nc1nc(C(=O)N(CCNC(=O)c2cccc3occc23)CC2CC2)c(-c2ccc(F)cc2)s1` [Example 261, 2-Amino-5-(4-fluoro-phenyl)-thiazole-4-carboxylic acid {2-[(benzofuran-4-carbonyl)-amino]-ethyl}-cyclopropylmethyl-amide], the results for the half-maximal inhibitory concentration (IC50) on human orexin-1 receptor (setting [1]) and on human orexin-2 receptor (setting [1]) were 263 nM and 4.2 nM, respectively.

As to `Cc1nc(C(=O)N(CCNC(=O)c2cccc3c2OCCO3)Cc2ccc(C(F)(F)F)cc2)c(-c2ccccc2)s1` [Example 25, 2-Methyl-5-phenyl-thiazole-4-carboxylic acid {2-[(2,3-dihydro-benzo[1,4]dioxine-5-carbonyl)-amino]-ethyl}-(4-trifluoromethyl-benzyl)-amide], the half-inhibitory concentration (IC50) is 75 nM on human orexin-1 receptor (measured with FLIPR 2) and 12 nM at human orexin-2 receptor (measured with FLIPR 2).

As for `Cc1nc(C(=O)NC(CNC(=O)c2cccc3occc23)CC(C)C)c(-c2ccccc2)s1` (racemic) [Example 83, 2-Methyl-5-phenyl-thiazole-4-carboxylic acid ((RS)-1-{[(benzofuran-4-carbonyl)-amino]-methyl}-3-methyl-butyl)-amide], the figures for the half-maximal inhibitory concentration (IC50) at human orexin-1 receptor (measured with FLIPR 2) and on human orexin-2 receptor (measured with FLIPR 2) were 437 nM and 303 nM, respectively.

`Nc1nc(C(=O)N(CCNC(=O)c2cccc3occc23)CC2CC2)c(-c2cccc(Cl)c2)s1` [Example 262, 2-Amino-5-(3-chloro-phenyl)-thiazole-4-carboxylic acid {2-[(benzofuran-4-carbonyl)-amino]-ethyl}-cyclopropylmethyl-amide]: the 50% inhibitory concentration (IC50) came out at 144 nM at human orexin-1 receptor (setting [1]) and 17 nM at human orexin-2 receptor (setting [1]).

In the case of `Cc1nc(C(=O)N(CCNC(=O)c2cccc3occc23)C2CC2)c(-c2ccc(C)c(C)c2)s1` [Example 165, 5-(3,4-Dimethyl-phenyl)-2-methyl-thiazole-4-carboxylic acid {2-[(benzofuran-4-carbonyl)-amino]-ethyl}-cyclopropyl-amide], the IC50 amounted to 2 nM at human orexin-1 receptor (setting [1]) and 4.3 nM on human orexin-2 receptor (setting [1]).

As for `Cc1ccc(-c2sc(Br)nc2C(=O)N(CCNC(=O)c2c(C)nc3sccn23)C2CC2)cc1` [Example 111, 6-Methyl-imidazo[2,1-b]thiazole-5-carboxylic acid {2-[(2-bromo-5-p-tolyl-thiazole-4-carbonyl)-cyclopropyl-amino]ethyl}-amide], the IC50 was 39 nM on human orexin-1 receptor (setting [1]) and 23 nM on human orexin-2 receptor (setting [1]).

With `Cc1nc(C(=O)N(C)C(CNC(=O)c2c(C)nc3sccn23)C2CC2)c(-c2ccccc2)s1` (racemic) [Example 47, 6-Methyl-imidazo[2,1-b]thiazole-5-carboxylic acid {(RS)-2-cyclopropyl-2-[methyl-(2-methyl-5-phenyl-thiazole-4-carbonyl)-amino]ethyl}-amide], the IC50 at human orexin-1 receptor (measured with FLIPR 2) was determined as 112 nM; on human orexin-2 receptor (measured with FLIPR 2), 50 nM.

In the case of `Cc1nc(C(=O)N(Cc2ccccc2)C(CNC(=O)c2c(C)nc3sccn23)Cc2ccccc2)c(-c2ccccc2)s1` (racemic) [Example 71, 6-Methyl-imidazo[2,1-b]thiazole-5-carboxylic acid {(RS)-2-[benzyl-(2-methyl-5-phenyl-thiazole-4-carbonyl)-amino]-3-phenyl-propyl}-amide], the results for the IC50 at human orexin-1 receptor (measured with FLIPR 2) and on human orexin-2 receptor (measured with FLIPR 2) were 27 nM and 50 nM, respectively.

For the molecule `COc1cccc(-c2sc(C)nc2C(=O)N(CCNC(=O)c2nn(C)c3ccccc23)C2CC2)c1` [Example 140, 1-Methyl-1H-indazole-3-carboxylic acid (2-{cyclopropyl-[5-(3-methoxy-phenyl)-2-methyl-thiazole-4-carbonyl]-amino}-ethyl)-amide], the figures for the IC50 on human orexin-1 receptor (setting [1]) and at human orexin-2 receptor (setting [1]) were 98 nM and 68 nM, respectively.

As for `Cc1nc(C(=O)N(CCNC(=O)c2cccc3c2OCCO3)CC(C)C)c(-c2ccccc2)s1` [Example 31, 2-Methyl-5-phenyl-thiazole-4-carboxylic acid {2-[(2,3-dihydro-benzo[1,4]dioxine-5-carbonyl)-amino]-ethyl}-isobutyl-amide], the IC50 worked out at 504 nM at human orexin-1 receptor (measured with FLIPR 2) and 85 nM at human orexin-2 receptor (measured with FLIPR 2).

Consider `Cc1cccc(-c2ccccc2C(=O)N(CCNC(=O)c2cccc3c2OCCO3)CC2CC2)c1` [Example 252, 2,3-Dihydro-benzo[1,4]dioxine-5-carboxylic acid {2-[cyclopropylmethyl-(3′-methyl-biphenyl-2-carbonyl)-amino]-ethyl}-amide], for which the half-maximal inhibitory concentration (IC50) on human orexin-1 receptor (setting [1]) was 807 nM; on human orexin-2 receptor (setting [1]) it was 203 nM.

Consider `Cc1nc2sccn2c1C(=O)NCC(CC(C)C)NC(=O)c1ccccc1-c1ccccc1` (racemic) [Example 88, 6-Methyl-imidazo[2,1-b]thiazole-5-carboxylic acid {(RS)-2-[(biphenyl-2-carbonyl)-amino]-4-methyl-pentyl}-amide], for which the IC50 was determined as 84 nM on human orexin-1 receptor (measured with FLIPR 2) and 46 nM on human orexin-2 receptor (measured with FLIPR 2).

In the case of `Cc1nc(C(=O)N(CCNC(=O)c2c(C)nc3sccn23)CC2CC2)c(-c2cccc(C#N)c2)s1` [Example 187, 6-Methyl-imidazo[2,1-b]thiazole-5-carboxylic acid (2-{[5-(3-cyano-phenyl)-2-methyl-thiazole-4-carbonyl]-cyclopropylmethyl-amino}-ethyl)-amide], the IC50 on human orexin-1 receptor (setting [1]) is 17 nM; on human orexin-2 receptor (setting [1]), 28 nM.

Take `Cc1nc(C(=O)N(C)CCNC(=O)c2cccc3occc23)c(-c2ccc(F)cc2)s1` [Example 3, 5-(4-Fluoro-phenyl)-2-methyl-thiazole-4-carboxylic acid {2-[(benzofuran-4-carbonyl)-amino]-ethyl}-methyl-amide]: the IC50 is 150 nM at human orexin-1 receptor (setting [2]) and 27 nM on human orexin-2 receptor (setting [2]).

For the molecule `COc1cccc(-c2sc(C)nc2C(=O)N(CCNC(=O)c2cccc3c2OCCO3)CC2CC2)c1` [Example 248, 5-(3-Methoxy-phenyl)-2-methyl-thiazole-4-carboxylic acid cyclopropylmethyl-{2-[(2,3-dihydro-benzo[1,4]dioxine-5-carbonyl)-amino]-ethyl}-amide], the values for the IC50 at human orexin-1 receptor (setting [1]) and on human orexin-2 receptor (setting [1]) were 434 nM and 29 nM, respectively.

On to `Cc1nc2sccn2c1C(=O)NCC(C)N(Cc1ccccc1)C(=O)c1ccccc1-c1ccccc1` (racemic) [Example 97, 6-Methyl-imidazo[2,1-b]thiazole-5-carboxylic acid {(RS)-2-[benzyl-(biphenyl-2-carbonyl)-amino]-propyl}-amide], for which the concentration for half-maximal inhibition (IC50) on human orexin-1 receptor (measured with FLIPR 2) was found to be 5.7 nM; at human orexin-2 receptor (measured with FLIPR 2), 5.8 nM.

In the case of `Cc1nc2sccn2c1C(=O)NCC(C(C)C)N(Cc1ccccc1)C(=O)c1ccccc1-c1ccccc1` (racemic) [Example 99, 6-Methyl-imidazo[2,1-b]thiazole-5-carboxylic acid {(RS)-2-[benzyl-(biphenyl-2-carbonyl)-amino]-3-methyl-butyl}-amide], the IC50 stood at 114 nM on human orexin-1 receptor (measured with FLIPR 2) and 718 nM on human orexin-2 receptor (measured with FLIPR 2).
